Data taken from ChEMBL document CHEMBL1938377, “Synthesis and evaluation of 17α-E-20-(heteroaryl)norpregn-1,3,5(10),20 tetraene-3,17β-diols [17α-(heteroaryl)vinyl estradiols] as ligands for the estrogen receptor-α ligand binding domain (ERα-LBD)” (Bioorg Med Chem Lett, 2012).
Activity calls are given as the source filed them. The rule behind the calls is not given here.

Columns and labels:
[1] = Agonist activity at estrogen receptor in human Ishikawa cells assessed as increase of alkaline phosphatase level after 3 days using P-nitrophenyl phosphate as substrate relative to estradiol; type: functional
Ishikawa = experiment: Antagonist activity at estrogen receptor in human Ishikawa cells assessed as inhibition of estradiol-induced alkaline phosphatase level after 3 days using P-nitrophenyl phosphate as substrate; type: functional, cell-based
[2] = molecular target: T1, Estrogen receptor (Homo sapiens) (UniProt P03372); experiment: Displacement of [3H]-estradiol from human […] LBD expressed in Escherichia coli at 1 uM to 1 pM relative to estradiol
T1 sequence (whole entry): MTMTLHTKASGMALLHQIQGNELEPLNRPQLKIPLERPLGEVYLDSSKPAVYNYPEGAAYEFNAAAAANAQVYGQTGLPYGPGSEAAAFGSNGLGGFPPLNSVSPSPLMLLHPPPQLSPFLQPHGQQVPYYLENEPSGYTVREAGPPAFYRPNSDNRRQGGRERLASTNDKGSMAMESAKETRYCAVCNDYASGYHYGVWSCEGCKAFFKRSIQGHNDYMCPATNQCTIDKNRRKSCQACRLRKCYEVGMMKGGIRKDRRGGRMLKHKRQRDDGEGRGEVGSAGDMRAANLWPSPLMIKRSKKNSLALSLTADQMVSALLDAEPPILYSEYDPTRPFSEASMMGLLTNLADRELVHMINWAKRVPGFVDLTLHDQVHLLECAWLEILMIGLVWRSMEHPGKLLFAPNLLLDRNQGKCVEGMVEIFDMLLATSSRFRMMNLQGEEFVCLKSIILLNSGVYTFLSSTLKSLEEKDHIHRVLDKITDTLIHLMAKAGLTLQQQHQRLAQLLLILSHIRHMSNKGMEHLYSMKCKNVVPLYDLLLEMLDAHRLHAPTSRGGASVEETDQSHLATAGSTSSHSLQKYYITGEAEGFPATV

[3] = Agonist activity at estrogen receptor in human Ishikawa cells assessed as increase of alkaline phosphatase level after 3 days using P-nitrophenyl phosphate as substrate; type: functional, cell-based; details: 72 h

SMILES	RBA [2]	RSA [1]	inhibition (Ishikawa)	EC50 [3]
C[C@]12CC[C@@H]3c4ccc(O)cc4CC[C@H]3[C@@H]1CC[C@@]2(O)/C=C/c1ccccc1	10.3	9.5%	inactive	
C[C@]12CC[C@@H]3c4ccc(O)cc4CC[C@H]3[C@@H]1CC[C@@]2(O)/C=C/c1cccnc1	4	0.25%	inactive	
C[C@]12CC[C@@H]3c4ccc(O)cc4CC[C@H]3[C@@H]1CC[C@@]2(O)/C=C/c1ccsc1	2.9	2.5%	inactive	
C[C@]12CC[C@@H]3c4ccc(O)cc4CC[C@H]3[C@@H]1CC[C@@H]2O [ESTRADIOL]				0.9 nM
C[C@]12CC[C@@H]3c4ccc(O)cc4CC[C@H]3[C@@H]1CC[C@@]2(O)/C=C/c1cncnc1	0.8	0.4%	inactive	
C[C@]12CC[C@@H]3c4ccc(O)cc4CC[C@H]3[C@@H]1CC[C@@]2(O)/C=C/c1ccncc1	2.5	0.1%	inactive	

More lines, main results first:

RBA [2]	SMILES	RSA [1]	inhibition (Ishikawa)	EC50 [3]
1.5	C[C@]12CC[C@@H]3c4ccc(O)cc4CC[C@H]3[C@@H]1CC[C@@]2(O)/C=C/c1ccccn1	0.1%	inactive	
2.7	C[C@]12CC[C@@H]3c4ccc(O)cc4CC[C@H]3[C@@H]1CC[C@@]2(O)/C=C/c1cccs1	2.5%	inactive	
